pIC50: −log10 of the molar value.

One assay addresses MLL1-WDR5 PPI (Homo sapiens (Human), UniProt P61964). The assay is described as follows: fluorescent probe assay of MLL1-WDR5 protein-protein interaction inhibition. The assay is classed as binding. The conditions noted are these: fluorescent probe based on MLL1 peptide, incubation 0.5 hrs, read-out: MLL1-WDR5 PPI inhibiting activity IC50. The procedure, abridged:
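WDR5 protein incubated 0.5 h with a fluorescent MLL1-peptide probe and serially diluted compound; fluorescence polarization (mP) read at ex 485/em 535 nm. Inhibition rate across concentrations fitted to give IC50.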

Assay [1] concerns methylation level of H3K4. In words: inhibition of the methylation level of H3K4 (methyltransferase activity). The assay is classed as biochemical.
Assay [2] concerns MV4-11 human acute mononuclear leukemia cells. In words: anti-proliferative activity against leukemia cells MV4-11. The assay is classed as cell-based. Conditions: Homo sapiens, MV4-11, MV4-11 cells; read-out: GI50 (MV-411). The source says:
(§1) Some compounds of the present disclosure have also been tested for the antiproliferative activity against leukemia cells.

Assay [3] has as its system Molm-13 human acute myeloid leukemia cells. In words: anti-proliferative activity against leukemia cells Molm-13. It counts as cell-based. The conditions noted are these: Homo sapiens, MOLM-13, Molm-13 cells.
From the text: as §1

In assay [4] the test system is MLL1 (H3K4me1/2/3 expression level). In words: Western blot, methyltransferase function of MLL1 at the cellular level. The assay is classed as cell-based. Conditions: FIG. 1. The source says: Moreover, some compounds have also been tested by Western-blot.
The subject of a further assay is Hox and Meis-1 genes. In words: RT-PCR, expression of downstream Hox and Meis-1 genes at the cellular level. The assay is classed as cell-based. Conditions: FIG. 2. The source says:
Furthermore, some of the compounds of the present disclosure have also been subjected to a RT-PCR experiment at the cellular level. The results of the inhibitory effect of some compounds on the expression levels of downstream Hox and Meis-1 genes at the cellular level are shown in FIG. 2.

In the next assay the test system is MV4-11 tumor. The assay is described as follows: MV4-11 nude mouse xenograft tumor model. It counts as in vivo. The conditions noted are these: MV4-11 xenograft in nude mice, oral administration, FIG. 3. The source says:
In addition, some of the compounds of the present disclosure have also been tested for the anti-tumor activity at the animal level. A nude mice xenograft tumor model of leukemia cells MV4-11 was selected for oral administration.

As for `CN1CCN(c2cc(F)c(-c3ccc(C(=O)N4CCOCC4)cc3)cc2Nc2ncnc(Cl)c2N)CC1` [Example 67, (5″-((5-amino-6-chloropyrimidin-4-yl)amino)-2′-fluoro-4″-(4-methylpiperazin-1-yl)-[1,1′-biphenyl]-4-yl)(morpholino)methanone], the pIC50 on MLL1-WDR5 PPI is 7.44. The “Whether the methylation level of H3K4 was inhibited” value in assay [1] was “Yes”. For the same compound, the GI50 in assay [2] is 19.6 µM; in assay [3], 16.5 µM.

In the case of `CN1CCN(c2cc(F)c(-c3ccc(C(=O)NCCN4CCOCC4)cc3)cc2Nc2ncnc(Cl)c2N)CC1` [Example 68], the pIC50 on MLL1-WDR5 PPI was 7.13. For the same compound, the “Whether the methylation level of H3K4 was inhibited” value in assay [1] is listed as “Yes”. The values for the concentration for 50% growth inhibition (GI50) in assay [2] and in assay [3] were 27.7 µM and 23.1 µM, respectively.

As for `CN1CCN(c2cc(F)c(-c3ccc(C(=O)NCCCN4CCOCC4)cc3)cc2Nc2ncnc(Cl)c2N)CC1` [Example 69], the pIC50 on MLL1-WDR5 PPI is 7.68. In assay [1], the “Whether the methylation level of H3K4 was inhibited” value is given as “Yes”. Moreover, the concentration for 50% growth inhibition (GI50) in assay [2] turned out to be 25.6 µM; in assay [3], 17.3 µM.

On to `CN1CCN(c2cc(F)c(-c3ccc(C(=O)N4CCC(O)CC4)cc3)cc2Nc2ncnc(Cl)c2N)CC1` [Example 70], for which the pIC50 on MLL1-WDR5 PPI is 7.48. Further, the “Whether the methylation level of H3K4 was inhibited” value in assay [1] is “Yes”. The GI50 in assay [2] came out at 20.2 µM; in assay [3], 13.2 µM.

Take `CN1CCN(c2cc(F)c(-c3ccc(C(=O)NCC4CCOCC4)cc3)cc2Nc2ncnc(Cl)c2N)CC1` [Example 71, 5″-((5-amino-6-chloropyrimidin-4-yl)amino)-2′-fluoro-4″-(4-methylpiperazin-1-yl)-N-((tetrahydro-2H-pyran-4-yl)methyl)-[1,1′-biphenylyl]-4-carboxamide]: the pIC50 on MLL1-WDR5 PPI was 7.44. For the same compound, the “Whether the methylation level of H3K4 was inhibited” value in assay [1] is “Yes”. Also, the GI50 stood at 15.7 µM in assay [2] and 12.3 µM in assay [3].

As to `CN1CCN(c2cc(F)c(-c3ccc(C(=O)N(C)C)cc3)cc2Nc2ncnc(Cl)c2N)CC1` [Example 72, 5″-((5-amino-6-chloropyrimidin-4-yl)amino)-2′-fluoro-N,N-dimethyl-4″-(4-methylpiperazin-1-yl)-[1,1′-biphenyl]-4-carboxamide], the pIC50 at MLL1-WDR5 PPI was 7.54. Moreover, in assay [1], the “Whether the methylation level of H3K4 was inhibited” value is given as “Yes”. Also, the concentration for 50% growth inhibition (GI50) in assay [2] was 12.6 µM; in assay [3], 13.1 µM. Further, in assay [4], the “inhibition of catalytic activity of MLL1, expression level of H3K4me1/2/3” value is “inhibit the catalytic activity of MLL1 dose-dependently”. Further, in the assay with Hox and Meis-1 genes, the “expression levels of Hox and Meis-1 genes” value is “down-regulate the expression levels of Hox and Meis-1 genes dose-dependently”. Also, the “inhibition of tumor growth” value in the assay with MV4-11 tumor is listed as “inhibit the tumor growth dose-dependently”.

For orientation: pIC50 means the IC50 on a negative log10 scale, so that one unit is a factor of ten. For orientation: GI50 means the concentration that inhibits growth by half.

Values taken from patent US12453731B2, “Aniline-based WDR5 protein-protein interaction inhibitor, and preparation method and use thereof” (CHINA PHARMACEUTICAL UNIVERSITY, priority 2019, dated 2025).
